PMC9698773, “Design, Synthesis, Molecular Modeling, and Anticancer Evaluation of New VEGFR-2 Inhibitors Based on the Indolin-2-One Scaffold” (Pharmaceuticals, 2022)

Legend:
MCF-7 cell line = test: MTT cytotoxicity assay, MCF-7; assay type: cell-based, human; conditions: for IC50: Homo sapiens, MCF7, MTT assay, mean ± SD of three experiments; for fold more potent than sunitinib, MCF-7: ratio of IC50 to sunitinib
Experimental: (§1) The cytotoxic activities against breast MCF-7 and liver HepG2 cancer cell lines for all the synthesized compounds 3a,b–17a,b were evaluated by MTT-based cytotoxicity assay. Sunitinib was selected as a reference standard in this study, and the results are presented as IC50 in Table 1.
(§2) The anticancer activities of the target compounds 3a,b–17a,b were quantitatively assessed using the MTT protocol against the MCF-7 and HepG2 cell lines, as described in the Supplementary Materials. […]
(§3) 4.2. Biological investigation
(§4) 4.2.1. In vitro cytotoxic activity assay
(§5) Citation: Abdelgawad, M.A.; Cell Line cells were obtained from the American Type Culture Collection. The cells Hayallah A.M.; Bukhari S.N.A.; were cultured using DMEM (Invitrogen/Life Technologies) supplemented with 10% FBS Musa A.; Elmowafy M.; (Hyclone,), 10 ug/ml of insulin (Sigma), and 1% penicillin‐streptomycin. All of the other Abdel‐Rahman, H.M.; chemicals and reagents were from Sigma or Invitrogen. Plate cells (cells density 1.2 – 1.8 Abd El‐Gaber, M.K. Design, × 10,000 cells/well) in a volume of 100μl complete growth medium + 100 μl of the tested Synthesis, Molecular Modeling, and compound per well in a 96‐well plate for 24 hours before the MTT assay. The tested com‐ Anticancer Evaluation of New pounds were dissolved in DMSO just before the test.
(§6) VEGFR‐2 Inhibitors Based on the Indolin‐2‐One Scaffold. 4.2.1.1. Cell culture protocol
(§7) Pharmaceuticals 2022, 15, x. The culture medium was removed to a centrifuge tube. The cell layer was briefly https://doi.org/10.3390/xxxxx rinsed with 5 mL of 0.25% (w/v) Trypsin and 3 mL of 0.53 mM EDTA solution to remove Academic Editor(s): Mary J. Meegan all traces of serum which contains Trypsin inhibitor. Next, 2.0 to 3.0 ml of Trypsin EDTA Received: 18 October 2022 solution was added to the flask and cells were observed under an inverted microscope Accepted: 9 November 2022 until the cell layer was dispersed (usually within 5 to 15 minutes). Then, 6.0 to 8.0 mL of Published: 14 November 2022 complete growth medium was added and cells aspirated by gently pipetting. The cell suspension was transferred to the centrifuge tube with the medium and cells from step 1, Publisher’s Note: MDPI stays neu‐and centrifuged at approximately 125 xg for 5 to 10 minutes. The supernatant was dis‐ tral with regard to jurisdictional carded and the cell pellet was suspended in fresh growth medium. Appropriate aliquots claims in published maps and institu‐ of the cell suspension were added to new culture vessels and incubated at 37°C for 24 hrs. tional affiliations. After treatment of cells with the serial concentrations of the compound to be tested, incu‐ bation was carried out for 48 h at 37 °C. The plates were examined under an inverted mi‐ croscope and proceeded for the MTT assay […]
(§8) Submitted for possible open access 4.2.1.2. […]
(§9) HepG‐2) were used in this test. At first, the cell lines were cultured in RPMI‐1640 medium Pharmaceuticals 2022, 15, x. https://doi.org/10.3390/xxxxx. www.mdpi.com/journal/pharmaceuticals […]
(§10) Pharmaceuticals 2022, 15, x FOR PEER REVIEW 2 of 22 with 10% fetal bovine serum. Antibiotics (100 units/ml penicillin and100 μg/ml strepto‐ mycin) were added at 37 °C in a 5% CO2 incubator. The cell lines were seeded in a 96‐well plate at a density of 1.0 x 10^4 cells / well at 37 °C for 48 h under 5% CO2. After incubation, the cells were treated with different concentrations of the synthesized compounds and incubated for 24 h. After 24 h of drug treatment, 20 μl of MTT solution (5mg/ml) was added and incubated for 4 h. 100 μl of dimethyl sulfoxide (DMSO) was added into each well to dissolve the formed purple formazan. The colored solution was measured and recorded at an absorbance of 570 nm using a plate reader (EXL 800, USA). The relative cell viability was calculated in percentage as (A570 of treated samples/A570 of untreated sam‐ ple) X 100. The half maximal inhibitory concentration (IC50) values were presented using […]

HepG2 cell line = test: MTT cytotoxicity assay, HepG2; assay type: cell-based, human; conditions: mean ± SD of three experiments
Experimental: as §1, §2, §3, §4, §5, §6, §7, §8, §9, §10

VEGFR-2 = VEGFR-2 (Homo sapiens, UniProt P35968); test: In vitro VEGFR-2 kinase inhibitory assay (VEGFR2 (KDR) Kinase Assay Kit)
Experimental: In vitro VEGFR‐2 kinase inhibitory assay
for their inhibitory activity against VEGFR‐2. Human BPS bioscience® VEGFR2 (KDR) Ki‐ nase Assay Kit (Enzyme‐Linked Immunosorbent Assay) was utilized in this test. The lu‐ minescent signal from the assay is correlated with the amount of ATP present and is in‐ versely correlated with the amount of kinase activity. The compounds were diluted to 100 μM in 10% DMSO and 5 ml of the diluted solution was added to a 50 ml reaction so that the final concentration of DMSO was 1% in all of reactions. All of the enzymatic reactions were conducted at 30 °C for 40 min. The 50 μl reaction mixture contains 40 μM Tris, pH 7.4, 10 μM MgCl2, 0.1 mg/ml BSA, 0.2 mg/ml Poly (Glu, Tyr) substrate, 10 μM ATP, and VEGFR‐2. After the enzymatic reaction, 50 ml of Kinase‐GloPlus Luminescence kinase as‐ say solution (Promega) was added to each reaction and the plate was incubated for 5 min at room temperature. Luminescence signal was measured using a BioTek Synergy 2 mi‐ croplate reader. The protein kinase assays used to determine IC50 values were performed using a ADP‐GloTM assay kit from Promega, which measures the generation of ADP by the protein kinase. Generation of ADP by the protein kinase reaction leads to an increase in luminescence signal in the presence of the ADP‐GloTM assay kit. The assay was started by incubating the reaction mixture in a 96‐well plate at 30 °C for 30 min. After the 30 mi n incubation period, the assay was terminated by the addition of 25 ml of ADP‐GloTM Re‐ agent (Promega). The 96‐well plate was shaken and then incubated for 40 min at ambient temperature; 50 ml of Kinase detection reagent was added, the 96‐well reaction plate wa s then read using the ADP‐Glo Luminescences Protocol on a GloMax plate reader (Promega: Catalog #E7031). The blank control was set up which included all the assay components, except the addition of appropriate substrates (replaced with equal volume of kinase assay buffer). The corrected activity for each protein kinase target was deter‐ mined by removing the blank control value. IC50 determination for inhibitor against VEGFR‐2 was estimated by generating a graph of log inhibitor vs normalized response with variables.

HepG2 cells = test system: HepG2 cells; design: method as in PMID 29901131; conditions: HepG2 liver cancer cells; cited from earlier work

Chain of VEGFR-2 (P35968 20-1356): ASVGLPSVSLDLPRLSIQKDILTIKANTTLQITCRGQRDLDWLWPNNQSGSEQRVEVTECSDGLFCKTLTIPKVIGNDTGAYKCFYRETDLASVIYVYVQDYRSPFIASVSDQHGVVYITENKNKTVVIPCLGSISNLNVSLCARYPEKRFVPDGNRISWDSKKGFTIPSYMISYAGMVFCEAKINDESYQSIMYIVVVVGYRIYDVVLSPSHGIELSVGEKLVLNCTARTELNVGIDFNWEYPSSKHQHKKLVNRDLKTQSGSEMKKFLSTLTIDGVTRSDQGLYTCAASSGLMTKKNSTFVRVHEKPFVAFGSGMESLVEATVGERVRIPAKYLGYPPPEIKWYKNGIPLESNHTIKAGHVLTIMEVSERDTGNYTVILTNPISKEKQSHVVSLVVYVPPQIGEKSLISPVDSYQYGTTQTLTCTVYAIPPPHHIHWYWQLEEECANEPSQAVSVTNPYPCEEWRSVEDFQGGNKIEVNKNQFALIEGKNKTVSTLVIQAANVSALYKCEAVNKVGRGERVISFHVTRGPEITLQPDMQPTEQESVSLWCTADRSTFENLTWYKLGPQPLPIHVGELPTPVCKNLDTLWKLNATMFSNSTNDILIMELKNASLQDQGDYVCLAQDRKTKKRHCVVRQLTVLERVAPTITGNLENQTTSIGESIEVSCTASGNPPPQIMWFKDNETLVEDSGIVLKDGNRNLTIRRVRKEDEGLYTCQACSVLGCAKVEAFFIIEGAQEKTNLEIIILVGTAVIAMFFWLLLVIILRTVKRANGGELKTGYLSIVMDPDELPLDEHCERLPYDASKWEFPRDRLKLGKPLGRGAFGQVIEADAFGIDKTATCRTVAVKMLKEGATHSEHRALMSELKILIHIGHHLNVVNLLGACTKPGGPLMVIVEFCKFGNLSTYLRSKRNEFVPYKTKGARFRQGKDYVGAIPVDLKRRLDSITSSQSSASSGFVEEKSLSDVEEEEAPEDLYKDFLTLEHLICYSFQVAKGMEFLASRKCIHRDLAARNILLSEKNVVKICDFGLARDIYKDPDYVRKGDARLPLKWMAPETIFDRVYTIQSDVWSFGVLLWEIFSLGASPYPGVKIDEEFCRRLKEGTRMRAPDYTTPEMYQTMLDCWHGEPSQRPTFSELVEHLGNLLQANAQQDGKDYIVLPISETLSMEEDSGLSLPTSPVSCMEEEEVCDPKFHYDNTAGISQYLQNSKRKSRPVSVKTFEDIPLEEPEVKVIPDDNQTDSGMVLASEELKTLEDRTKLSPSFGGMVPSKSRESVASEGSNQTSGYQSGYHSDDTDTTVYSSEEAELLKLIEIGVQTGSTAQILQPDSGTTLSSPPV

Row | SMILES | IC50 (MCF-7 cell line) [µM] | IC50 (HepG2 cell line; Homo sapiens, HepG2, MTT assay) [µM] | melting point [°C] | fold more potent than sunitinib, MCF-7 (MCF-7 cell line) [fold] | IC50 (VEGFR-2) [µM] | fold more potent than sunitinib, VEGFR-2 inhibition (VEGFR-2; ratio of IC50 to sunitinib) [fold] | IC50 (HepG2 cell line; MTT assay) [µM] | phase of cell cycle arrest (HepG2 cells)
1 | O=C1Nc2ccccc2/C1=N/c1ccc(C(=O)O)cc1 [Compound 3a] | 51.6 ± 2.5 | 62.4 ± 2.61 | – | – | – | – | – | –
2 | O=C1Nc2ccc(F)cc2/C1=N/c1ccc(C(=O)O)cc1 [Compound 3b] | 43.9 ± 2.1 | 51.2 ± 2.5 | – | – | – | – | – | –
3 | CNC(=S)NNC(=O)c1ccc(N=C2C(=O)Nc3ccccc32)cc1 [Compound 5a, N-Methyl-2-(4-((2-oxoindolin-3-ylidene)amino)benzoyl)hydrazinecarbothioamide] | 6.42 ± 0.55 | 5.48 ± 0.27 | 249 to 251 | – | – | – | – | –
4 | CNC(=S)NNC(=O)c1ccc(N=C2C(=O)Nc3ccc(F)cc32)cc1 [Compound 5b, 2-(4-((5-Fluoro-2-oxoindolin-3-ylidene)amino)benzoyl)-N-methylhydrazinecarbothioamide] | 0.99 ± 0.04 | 2.62 ± 0.13 | 252 to 254 | 5 | 0.16 ± 0.008 | – | – | –
5 | CCOC(=O)c1ccc(/N=C2\C(=O)Nc3ccccc32)cc1 [Compound 7a] | 14.9 ± 0.7 | 10.9 ± 0.53 | – | – | – | – | – | –
6 | CCOC(=O)c1ccc(/N=C2\C(=O)Nc3ccc(F)cc32)cc1 [Compound 7b] | 3.81 ± 0.2 | 2.23 ± 0.11 | – | – | – | – | – | –
7 | NNC(=O)c1ccc(/N=C2\C(=O)Nc3ccccc32)cc1 [Compound 8a] | 27.2 ± 1.3 | 24.9 ± 1.21 | – | – | – | – | – | –
8 | NNC(=O)c1ccc(/N=C2\C(=O)Nc3ccc(F)cc32)cc1 [Compound 8b] | 40.7 ± 2.8 | 53.9 ± 2.63 | – | – | – | – | – | –
9 | O=C1Nc2ccccc2C1=Nc1ccc(C(=O)NN=Cc2ccc([N+](=O)[O-])cc2)cc1 [Compound 10a, N′-(4-Nitrobenzylidene)-4-((2-oxoindolin-3-ylidene)amino)benzohydrazide] | 40 ± 2 | 8.24 ± 0.4 | 220 to 222 | – | – | – | – | –
10 | O=C1Nc2ccccc2C1=Nc1ccc(C(=O)NN=Cc2ccc(Cl)cc2)cc1 [Compound 10b, N′-(4-Chlorobenzylidene)-4-((2-oxoindolin-3-ylidene)amino)benzohydrazide] | 23.8 ± 1.21 | 33.8 ± 1.65 | 237 to 239 | – | – | – | – | –
11 | O=C1Nc2ccccc2C1=Nc1ccc(C(=O)NN=Cc2cccc([N+](=O)[O-])c2)cc1 [Compound 10c, N′-(3-Nitrobenzylidene)-4-((2-oxoindolin-3-ylidene)amino)benzohydrazide] | 14.6 ± 0.71 | 21 ± 1.02 | 200 to 201 | – | – | – | – | –
12 | Cc1ccc(C=NNC(=O)c2ccc(N=C3C(=O)Nc4ccccc43)cc2)cc1 [Compound 10d, N′-(4-Methylbenzylidene)-4-((2-oxoindolin-3-ylidene)amino)benzohydrazide] | 13.7 ± 0.4 | 21.4 ± 1.05 | 234 to 236 | – | – | – | – | –
13 | COc1ccc(C=NNC(=O)c2ccc(N=C3C(=O)Nc4ccccc43)cc2)cc1 [Compound 10e, N′-(4-Methoxybenzylidene)-4-((2-oxoindolin-3-ylidene)amino)benzohydrazide] | 4.62 ± 0.2 | 8.81 ± 0.43 | 239 to 240 | – | 0.358 ± 0.019 | – | – | –
14 | CN(C)c1ccc(C=NNC(=O)c2ccc(N=C3C(=O)Nc4ccc(F)cc43)cc2)cc1 [Compound 10f, N′-(4-(Dimethylamino)benzylidene)-4-((5-fluoro-2-oxoindolin-3-ylidene)amino)benzohydrazide] | 11 ± 0.59 | 19.2 ± 0.94 | 202 to 204 | – | – | – | – | –
15 | O=C1Nc2ccc(F)cc2C1=Nc1ccc(C(=O)NN=Cc2ccc(Br)cc2)cc1 [Compound 10g, N′-(4-Bromobenzylidene)-4-((5-fluoro-2-oxoindolin-3-ylidene)amino)benzohydrazide] | 0.74 ± 0.03 | 2.79 ± 0.14 | 227 to 229 | 6 | 0.087 ± 0.004 | 1.6 | – | –
16 | O=C1Nc2ccccc2C1=Nc1ccc(C(=O)NN2C(=O)c3ccccc3C2=O)cc1 [Compound 12a, N-(1,3-Dioxoisoindolin-2-yl)-4-((2-oxoindolin-3-ylidene)amino)benzamide] | 78.4 ± 3.81 | 130 ± 6.37 | 187 to 189 | – | – | – | – | –
17 | O=C1Nc2ccc(F)cc2C1=Nc1ccc(C(=O)NN2C(=O)c3ccccc3C2=O)cc1 [Compound 12b, N-(1,3-Dioxoisoindolin-2-yl)-4-((5-fluoro-2-oxoindolin-3-ylidene)amino)benzamide] | 33.8 ± 1.7 | 23.5 ± 1.15 | 225 to 227 | – | – | – | – | –
18 | CCOC(=O)CC(C)=NNC(=O)c1ccc(N=C2C(=O)Nc3ccccc32)cc1 [Compound 14a, Ethyl 3-(2-(4-((2-oxoindolin-3-ylidene)amino)benzoyl)hydrazono)butanoate] | 7.37 ± 0.4 | 10.3 ± 0.81 | 206 to 208 | – | – | – | – | –
19 | CCOC(=O)CC(C)=NNC(=O)c1ccc(N=C2C(=O)Nc3ccc(F)cc32)cc1 [Compound 14b, Ethyl 3-(2-(4-((5-Fluoro-2-oxoindolin-3-ylidene)amino)benzoyl)hydrazono)butanoate] | 32.9 ± 1.61 | 13.8 ± 0.67 | 213 to 215 | – | – | – | – | –
20 | O=C1Nc2ccccc2C1=Nc1ccc(-c2n[nH]c(=S)o2)cc1 [Compound 15a, 3-((4-(5-Thioxo-4,5-dihydro-1,3,4-oxadiazol-2-yl)phenyl)imino)indolin-2-one] | 2.77 ± 0.1 | 2.3 ± 0.18 | 219 to 220 | – | 0.18 ± 0.009 | – | 2.3 ± 0.18 | –
21 | O=C1Nc2ccc(F)cc2C1=Nc1ccc(-c2n[nH]c(=S)o2)cc1 [Compound 15b, 5-Fluoro-3-((4-(5-thioxo-4,5-dihydro-1,3,4-oxadiazol-2-yl)phenyl)imino)indolin-2-one] | 19.6 ± 1.8 | 12.7 ± 0.62 | 231 to 233 | – | – | – | – | –
22 | O=C1Nc2ccc(F)cc2C1=Nc1ccc(C(=O)NNC(=S)Nc2ccccc2)cc1 [Compound 17b, 2-(4-((5-Fluoro-2-oxoindolin-3-ylidene)amino)benzoyl)-N-phenylhydrazinecarbothioamide] | 25.8 ± 1.3 | 9.81 ± 0.48 | 203 to 205 | – | – | – | – | –
23 | CNC(=O)c1cc(Oc2ccc(NC(=O)Nc3ccc(Cl)c(C(F)(F)F)c3)cc2)ccn1 [Sorafenib] | – | – | – | – | – | – | – | S phase and G2/M phase
24 | CCN(CC)CCNC(=O)c1c(C)[nH]c(/C=C2\C(=O)Nc3ccc(F)cc32)c1C [Sunitinib, reference compound] | 4.77 ± 0.29 | 2.23 ± 0.11 | – | – | – | – | – | –
